Assay [1] relates to liver of bile duct ligated (BDL) rats. The experiment in a line: MR imaging of liver in bile duct ligated rat liver fibrosis model. To be noted: for ΔCNR of liver: 30 min post injection. The assay is classed as in vivo. On the procedure: Rat Liver Fibrosis Model:
Liver fibrosis was induced in male Sprague Dawley rats (n=7) by ligation of the common bile duct (CD®, Charles River Labs, Wilmington, MA). Control animals (n=4) underwent a sham procedure. The BDL and sham rats were imaged 10 days following ligation with a dose of […] of Gd-9 based on body surface area.
T1-mapping was performed with a flow sensitive alternating inversion recovery (FAIR) sequence: repetition time/echo time=11000/33.8 ms; flip angle, 90°; inversion times: 100, 200, 400, 500, 600, 1000, 1500, 2000 ms; field of view, 60×60 mm^2; matrix size, 140×140; slice thickness, 2 mm; acquisition time, 3 minutes 34 seconds. T1 weighted imaging with 3D FLASH: repetition time/echo time=20/2.3 ms; flip angle, 30°; field of view, 60×60 mm^2; matrix size: 127×127; slice thickness, 0.5 mm; acquisition time, 3 minutes 10 seconds. Following the imaging session, animals were sacrificed (30 min p.i.) and liver tissue was subjected to histopathologic analysis.
Longitudinal relaxation rate (R1) maps were generated from the T1 mapping images using a custom written MATLAB (Mathworks, Natick, MA) program for voxel wise fitting of the inversion recovery signal intensities as a function of the inversion time. A region of interest (ROI) was manually traced encompassing the liver parenchyma while avoiding major blood vessels. ΔR1 was calculated by subtracting the R1Pre from R1Post, eq S3. ΔCNR were analyzed from 3D T1 weighted FLASH images, the same as that in mouse.

Assay [2] relates to human fibrotic/cirrhotic liver associated with NASH and normal liver tissue. As to the kind of experiment: LA-ICP-MS gadolinium imaging of human liver sections incubated with Gd-9. The assay is classed as binding. How it is done: Liver tissues were obtained from a total of 9 anesthetized patients who underwent surgical resection at Massachusetts General Hospital, and analyzed in accordance with a protocol approved by the Massachusetts General Hospital's Institutional Review Board.
Tissue Analysis for Human Tissues
The dissected tissues were immediately snap frozen in OCT using liquid nitrogen, sectioned into 10-μm-thick slices and stored at −80° C. Subsequently, the tissue sections were first allowed to warm to room temperature for 10 min and then fixed in 60% ethanol for 30 min, and washed with PBS. The following steps were the same as described above for the Sirius red staining and DNPH-reactivity assay.
LA-ICP-MS Gadolinium Imaging Analysis
Sample preparation. Harvested rat livers after MR imaging were immediately snapfrozen in OCT using liquid nitrogen, sectioned into 10-μm-thick slices, stored in −80° C. One slice was assessed by LA-ICP-MS directly. One adjacent slide was incubated with 0.1 mM Gd-9 at 37° C. for 2 h, followed with 0.2 mM NaBH3CN for 2 h and washed with PBS (3×10 min). Another adjacent slide was incubated with 0.1 mM Gd-9 and 10 mM hydrazine at 37° C. for 2 h, followed with 0.2 mM NaBH3CN for 2 hand washed with PBS (3×10 min). Similar procedures were carried out for human tissues. Slides were incubated with 0.1 mM Gd-9 at 37° C. for 2h, followed with 0.2 mM NaBH3CN for 2 h and washed with PBS (3×10 min).
Gadolinium mapping. Elemental images were collected from sections of liver tissue via laser ablation inductively coupled plasma mass spectrometry at the Biomedical National Elemental Imaging Resource (BNEIR). The instrumentation used was a New Wave Research 213 nm laser ablation system with a 10 cm^2 sample chamber, interfaced with an Agilent 7900 ICP-MS system. Samples were ablated in no-gas mode, with helium as a carrier gas at a flow rate of […]. The laser power was 65% and the frequency was 20 Hz. Ablation patterns consisted of continuous lines, with either a 12 μm or […] square beam and a scan speed of 120 μm sec^−1 or 200 μm sec^−1 respectively, as noted. The acquisitions time for gadolinium (mass 157) was 0.015 s. Elemental imaging data was quantified using metal-doped gelatin standards prepared at BNEIR and National Institute of Standards and Technology (NIST) certified references material 1515 (apple leaves). Data reduction was performed in the Iolite software application, using carbon (mass 13) as an internal standard to normalize the data.
The applicability of Gd-9 to assess fibrogenesis in human liver specimens was investigated. Resected human fibrotic/cirrhotic liver associated with NASH (n=5) and normal liver tissue (n=4) (Table C) were sectioned and stained for Lys^Ald.

Some results are limits rather than exact numbers.

For `NN1CCN(C(=O)CCC(C(=O)[O-])N2CCN(CC(=O)[O-])CCN(CC(=O)[O-])CCN(C(CCC(=O)N3CCN(N)CC3)C(=O)[O-])CC2)CC1.[Gd+3]` (stereo not drawn) [Gd-9, cis-1,4-Gd-(CHyd)2], the “fold higher liver to muscle ΔCNR in BDL rats compared to sham rats” value in assay [1] (30 min) stood at 4 fold. Besides, in assay [1] (30 min p.i.), the “fold higher ΔR1 in BDL rats compared to sham rats” value was found to be 5 fold. In addition, the ΔCNR of liver in assay [1] (BDL rats (n = 7)) is given as 3.4±1.6; in assay [1] (Sham rats (n = 4)) it was 0.6±0.2. Besides, the “change of liver longitudinal relaxation rate ΔR1” value in assay [1] (BDL rats, 30 min p.i.) is given as 0.6±0.2; in assay [1] (sham rats, 30 min p.i.), 0.1±0.03. In addition, the ΔR1 in assay [1] (rat model, in vivo imaging) is 0.6 s⁻¹. In addition, the “average Gd concentration in fibrotic human liver” value in assay [2] (across all samples) worked out at 80.4±15.5 ppm. Further, the “average Gd concentration in normal liver” value in assay [2] (across all samples) is recorded as 23.7±10.8 ppm. Besides, the “average Gd concentration in Lys^Ald positive areas” value in assay [2] (fibrotic human liver slices incubated with 0.1 mM probe) is on record as 30-200 ppm Gd. Besides, in assay [2] (human liver slices incubated with 0.1 mM probe), the “average Gd concentration in regions with low Lys^Ald” value is given as less than 30 ppm Gd.

The values are drawn from US20240285808A1, “MOLECULAR PROBES FOR IN VIVO DETECTION OF ALDEHYDES” (The General Hospital Corporation, priority 2021, published 2024).
